The subject of test [1] is High fat diet-fed (HFD-fed) mice. Nature of the test: Fecal protein concentration-increasing test using HFD-fed mouse (Test Example 2-2). It counts as in vivo. As to conditions: male, 47-week old, 10 mg/kg orally, whole feces of first day of administration, average ± standard deviation, five mice. As to the method:
(§1) High fat diet-fed (HFD-fed) mice (D12079B diet, male, 47-week old) were orally administered with a 0.5% methyl cellulose suspension containing a test compound (10 mg/kg) (compound administration group, five mice per group) or a 0.5% methyl cellulose suspension (compound non-administration group (vehicle), five mice per group), and whole feces were collected on the first day of administration. Dried feces were dissolved in 0.5 N NaOH, followed by centrifugation at 12,000 rpm. The protein concentration in the supernatant was quantitatively measured (Lowry method), and the amount of protein contained in 1 g of feces was calculated as the fecal protein concentration (mg/g feces). The average and the standard deviation of each group are shown below.

In test [2] the target is T1, Human recombinant enteropeptidase (Homo sapiens, UniProt P98073).
T1 construct: purchased ITSI-Biosciences LLC #REN-260
T1 sequence (P98073 whole entry): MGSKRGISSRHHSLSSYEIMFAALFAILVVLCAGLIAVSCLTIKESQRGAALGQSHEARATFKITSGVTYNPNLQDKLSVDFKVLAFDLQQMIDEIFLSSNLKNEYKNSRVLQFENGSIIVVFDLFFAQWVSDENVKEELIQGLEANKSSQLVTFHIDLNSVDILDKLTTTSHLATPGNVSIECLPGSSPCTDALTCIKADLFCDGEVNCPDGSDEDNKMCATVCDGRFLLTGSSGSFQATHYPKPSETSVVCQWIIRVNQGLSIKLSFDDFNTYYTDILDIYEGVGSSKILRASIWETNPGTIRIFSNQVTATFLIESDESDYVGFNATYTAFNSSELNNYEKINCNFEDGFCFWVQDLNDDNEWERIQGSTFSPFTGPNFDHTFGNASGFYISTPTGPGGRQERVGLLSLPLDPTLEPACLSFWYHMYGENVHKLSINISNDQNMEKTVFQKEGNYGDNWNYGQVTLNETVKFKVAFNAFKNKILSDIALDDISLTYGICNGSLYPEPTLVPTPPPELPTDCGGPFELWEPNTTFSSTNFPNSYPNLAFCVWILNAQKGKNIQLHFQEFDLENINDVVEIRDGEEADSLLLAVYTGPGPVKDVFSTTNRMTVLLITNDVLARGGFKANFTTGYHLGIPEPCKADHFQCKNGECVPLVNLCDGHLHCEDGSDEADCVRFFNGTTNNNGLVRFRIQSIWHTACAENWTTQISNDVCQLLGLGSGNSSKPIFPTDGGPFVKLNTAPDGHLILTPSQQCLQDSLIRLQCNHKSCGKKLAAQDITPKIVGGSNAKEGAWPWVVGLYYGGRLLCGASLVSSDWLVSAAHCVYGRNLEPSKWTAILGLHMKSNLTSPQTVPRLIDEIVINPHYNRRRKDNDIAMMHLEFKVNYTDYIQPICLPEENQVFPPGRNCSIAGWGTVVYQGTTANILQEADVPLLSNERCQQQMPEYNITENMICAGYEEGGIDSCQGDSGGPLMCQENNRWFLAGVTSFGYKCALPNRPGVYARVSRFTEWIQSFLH
In words: Human enteropeptidase inhibitory activity (Test Example 1). It is filed as biochemical. As to conditions: 3.3 μM test compound, inhibition rate from fluorescence intensity at 2 hours after the start of the reaction; for inhibition at 3.3 µM: read-out: 3.3 μM Inhibition. A digest of the protocol: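 Recombinant human enteropeptidase in 50 mM Tricine pH 8.0, 0.01% Tween 20, 10 mM CaCl2, with a 5FAM/CPQ2-quenched peptide substrate (2.1 μM solution before mixing). Compound came from 1 mM DMSO stock diluted 100-fold in buffer. Fluorescence (ex 485/em 535 nm) at 2 h gave % inhibition versus no-compound and no-enzyme controls.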

In test [3] the test system is Diet-induced obesity (DIO) mice. Nature of the test: Anti-obesity effect test using DIO mouse (Test Example 3). It counts as in vivo. As to conditions: male, 32-week old, average ± standard deviation, six mice. As to the method:
Diet-induced obesity (DIO) mice (D12079B diet, male, 32-week old) were orally administered with a 0.5% methyl cellulose suspension containing a test compound (10 mg/kg) (compound administration group, six mice per group) or a 0.5% methyl cellulose suspension (compound non-administration group (vehicle), six mice per group) once a day for one week. The averages and the standard deviations of the body weights at the start of administration and after continuous administration for one week are shown below.

Test [4] concerns High fat diet-fed (HFD-fed) mice. In words: Fecal protein concentration-increasing test using HFD-fed mouse (Test Example 2-1). It is filed as in vivo. The note with it: male, 19-week old, 10 mg/kg orally, whole feces of first day of administration, average ± standard deviation, six mice. As to the method:
as §1, with “diet, male, 19-week old) were” for “diet, male, 47-week old) were”, “administration group, six mice per” for “administration group, five mice per”, “supernatant was then quantitatively measured” for “supernatant was quantitatively measured”

The results in this text go back to patent US9975903B2, “Condensed heterocyclic compound” (Takeda Pharmaceutical Company Limited, priority 2014, dated 2018).

Regarding `N=C(N)Nc1ccc2c(c1)CCCOc1c(cccc1C(=O)N(Cc1cccc(C(=O)O)c1)[C@@H](CC(=O)O)C(=O)O)OC2=O` [Example 136, N-((10-Carbamimidamido-13-oxo-6,7,8,13-tetrahydrodibenzo[b,f][1,4]dioxecin-4-yl)carbonyl)-N-(3-carboxybenzyl)-L-aspartic acid], the “Fecal protein concentration (mg/g feces)” value in test [1] is 274.3 ± 74.6 mg/g feces. For the same compound, the inhibition at 3.3 µM in test [2] came out at 100%.
In the case of `N=C(N)Nc1ccc2c(c1)CCCOc1c(cccc1C(=O)N(CC(=O)O)[C@@H](Cc1ccc(OCCN(CC(=O)O)Cc3ccccc3)cc1)C(=O)O)OC2=O` [Example 122, O-(2-(Benzyl(carboxymethyl)amino)ethyl)-N-((10-carbamimidamido-13-oxo-6,7,8,13-tetrahydrodibenzo[b,f][1,4]dioxecin-4-yl)carbonyl)-N-(carboxymethyl)-L-tyrosine], the “Fecal protein concentration (mg/g feces)” value in test [1] worked out at 165.4 ± 16.2 mg/g feces. Also, in test [2], the inhibition at 3.3 µM was determined as 101%.
With `N=C(N)Nc1ccc2c(c1)CCCOc1c(cccc1C(=O)N(CCN(CC(=O)O)CC(=O)O)CC(=O)O)OC2=O` [Example 120, N-(2-(Bis(carboxymethyl)amino)ethyl)-N-((10-carbamimidamido-13-oxo-6,7,8,13-tetrahydrodibenzo[b,f][1,4]dioxecin-4-yl)carbonyl)glycine], in test [1], the “Fecal protein concentration (mg/g feces)” value is reported as 194.6 ± 48.1 mg/g feces. Also, the inhibition at 3.3 µM in test [2] was found to be 101%.
Take `COc1ccc(C[C@@H](C(=O)O)N(CC(=O)O)C(=O)c2cccc3c2OCCCc2cc(NC(=N)N)ccc2C(=O)O3)cc1` [Example 94, N-((10-Carbamimidamido-13-oxo-6,7,8,13-tetrahydrodibenzo[b,f][1,4]dioxecin-4-yl)carbonyl)-N-(carboxymethyl)-O-methyl-L-tyrosine]: the “Fecal protein concentration (mg/g feces)” value in test [1] worked out at 201.0 ± 21.8 mg/g feces. In addition, in test [2], the inhibition at 3.3 µM came out at 101%.
Take `N=C(N)Nc1ccc2c(c1)CCCOc1c(ccc(CCC(=O)O)c1C(=O)N(CC(=O)O)Cc1cccc(C(=O)O)c1)OC2=O` [Example 145, 3-((((10-Carbamimidamido-3-(2-carboxyethyl)-13-oxo-6,7,8,13-tetrahydrodibenzo[b,f][1,4]dioxecin-4-yl)carbonyl) (carboxymethyl)amino)methyl)benzoic acid]: the “Fecal protein concentration (mg/g feces)” value in test [1] is reported as 201.3 ± 45.3 mg/g feces. Further, in test [2], the inhibition at 3.3 µM was found to be 99%.
Take `N=C(N)Nc1ccc2c(c1)CCCOc1c(cccc1C(=O)N[C@@H](CC(=O)O)C(=O)O)OC2=O` [Example 3, N-((10-Carbamimidamido-13-oxo-6,7,8,13-tetrahydrodibenzo[b,f][1,4]dioxecin-4-yl)carbonyl)aspartic acid]: in test [3] (10 mg/kg orally once a day for one week), the “Body Weight (g) After continuous administration for one week” value is 41.4 ± 2.2 g. The “Body Weight (g) Start of administration” value in test [3] (group given 10 mg/kg orally once a day, baseline) turned out to be 44.5 ± 2.2 g. For the same compound, in test [4], the “Fecal protein concentration (mg/g feces)” value is on record as 233.3 ± 35.9 mg/g feces. For the same compound, the “3.3 μM Inhibition” value in test [2] was found to be 101%.

A word on the inhibition: it is the drop in the measured response relative to a control, in per cent.
